Data reported in BigSolDB 2.1.

COC(=O)c1cc(OC)c2c(c1-c1c(C(=O)OC)cc(OC)c3c1OCO3)OCO2
solubility (mole fraction)
Conditions	293.15 K	303.15 K	313.15 K	323.15 K	333.15 K
in acetone	0.00457	0.0068	0.0104	0.0174	–
in acetonitrile	0.00542	0.00808	0.0123	0.0189	–
in ethanol	6.48e-05	0.000114	0.000277	0.000523	0.00102
in ethyl acetate	0.00302	0.0044	0.00659	0.0103	–
in isopropanol	6.44e-05	0.00011	0.000223	0.000484	0.00107
in methanol	7.18e-05	0.000121	0.000275	0.000459	–
in methyl acetate	0.00549	0.00775	0.0124	0.0193	–
in n-butanol	5.71e-05	0.000114	0.000214	0.000511	0.00104
in n-butyl acetate	0.00137	0.00199	0.00318	0.00554	0.00831
in n-pentanol	6.14e-05	0.000114	0.000199	0.000388	0.00104
in n-pentyl acetate	0.0011	0.00154	0.00244	0.00387	0.00649
in n-propanol	5.78e-05	0.000104	0.000211	0.000479	0.00107
in n-propyl acetate	0.00171	0.00279	0.00423	0.00659	0.0117
